From ChEMBL document CHEMBL3608207, “Synthesis, characterization, evaluation and molecular dynamics studies of 5, 6-diphenyl-1,2,4-triazin-3(2H)-one derivatives bearing 5-substituted 1,3,4-oxadiazole as potential anti-inflammatory and analgesic agents” (Eur J Med Chem, 2015)

Assays:
Rattus norvegicus [1] = assay: Anti-inflammatory activity in rat model of acute inflammation assessed as inhibition of carrageenan-induced paw oedema dosed at 10 mg/kg, po dosed 1 hr before carrageenan injection and measured 3 hrs after carrageenan injection; type: functional
Rattus norvegicus [2] = assay: Anti-inflammatory activity in rat model of acute inflammation assessed as inhibition of carrageenan-induced paw oedema dosed at 10 mg/kg, po dosed 1 hr before carrageenan injection and measured 4 hrs after carrageenan injection; type: functional
Rattus norvegicus [3] = assay: Anti-inflammatory activity in rat model of acute inflammation assessed as inhibition of carrageenan-induced paw oedema dosed at 10 mg/kg, po dosed 1 hr before carrageenan injection and measured 5 hrs after carrageenan injection; type: functional
Rattus norvegicus [4] = assay: Anti-inflammatory activity in rat model of acute inflammation assessed as inhibition of carrageenan-induced paw oedema dosed at 10 mg/kg, po dosed 1 hr before carrageenan injection and measured 6 hrs after carrageenan injection; type: functional
Rattus norvegicus [5] = assay: Anti-inflammatory activity in rat assessed as inhibition of arachidonic acid-induced paw edema at 10 mg/kg, po dosed 30 mins before arachidonic acid injection and measured 1 hr after arachidonic acid injection; type: functional
Rattus norvegicus [6] = assay: Anti-inflammatory activity in rat Freund's adjuvant induced arthritis model of chronic inflammation assessed as inhibition of right hind paw swelling at 10 mg/kg, po dosed after 14 days from day of adjuvant injection until day 21 and measured on day 3; type: functional
Rattus norvegicus [7] = assay: Anti-inflammatory activity in rat Freund's adjuvant induced arthritis model of chronic inflammation assessed as inhibition of right hind paw swelling at 10 mg/kg, po dosed after 14 days from day of adjuvant injection until day 21 and measured on day 6; type: functional
Rattus norvegicus [8] = assay: Anti-inflammatory activity in rat Freund's adjuvant induced arthritis model of chronic inflammation assessed as inhibition of right hind paw swelling at 10 mg/kg, po dosed after 14 days from day of adjuvant injection until day 21 and measured on day 9; type: functional
Rattus norvegicus [9] = assay: Anti-inflammatory activity in rat Freund's adjuvant induced arthritis model of chronic inflammation assessed as inhibition of right hind paw swelling at 10 mg/kg, po dosed after 14 days from day of adjuvant injection until day 21 and measured on day 12; type: functional
Rattus norvegicus [10] = assay: Anti-inflammatory activity in rat Freund's adjuvant induced arthritis model of chronic inflammation assessed as inhibition of right hind paw swelling at 10 mg/kg, po dosed after 14 days from day of adjuvant injection until day 21 and measured on day 15; type: functional
Rattus norvegicus [11] = assay: Anti-inflammatory activity in rat Freund's adjuvant induced arthritis model of chronic inflammation assessed as inhibition of right hind paw swelling at 10 mg/kg, po dosed after 14 days from day of adjuvant injection until day 21 and measured on day 18; type: functional
Rattus norvegicus [12] = assay: Anti-inflammatory activity in rat Freund's adjuvant induced arthritis model of chronic inflammation assessed as inhibition of right hind paw swelling at 10 mg/kg, po dosed after 14 days from day of adjuvant injection until day 21 and measured on day 21; type: functional
Rattus norvegicus [13] = assay: Gastro-intestinal toxicity in rat Freund's adjuvant induced arthritis model of chronic inflammation assessed as ulcer index at 10 mg/kg, po dosed after 14 days from day of adjuvant injection until day 21 and measured on day 21; type: organism-based; conditions: in vivo, 336 h
Rattus norvegicus [14] = assay: Gastro-intestinal toxicity in rat Freund's adjuvant induced arthritis model of chronic inflammation assessed as assessed as histological changes at 10 mg/kg, po dosed after 14 days from day of adjuvant injection until day 21 and measured on day 21 by hematoxylin and eosin staining based microscopy; type: organism-based; conditions: in vivo, 336 h
Rattus norvegicus [15] = assay: Hepato-toxicity in rat Freund's adjuvant induced arthritis model of chronic inflammation assessed as assessed as SGOT level at 10 mg/kg, po dosed after 14 days from day of adjuvant injection until day 21 and measured on day 21 (reference value: 92.48 +/- 7.8 U/mL); type: organism-based; conditions: in vivo, 336 h
Rattus norvegicus [16] = assay: Hepato-toxicity in rat Freund's adjuvant induced arthritis model of chronic inflammation assessed as assessed as SGPT level at 10 mg/kg, po dosed after 14 days from day of adjuvant injection until day 21 and measured on day 21 (reference value: 34.23 +/- 2.5 U/mL); type: organism-based; conditions: in vivo, 336 h
Rattus norvegicus [17] = assay: Hepato-toxicity in rat Freund's adjuvant induced arthritis model of chronic inflammation assessed as assessed as alkaline phosphatase level at 10 mg/kg, po dosed after 14 days from day of adjuvant injection until day 21 and measured on day 21 (reference value: 17.82 +/- 1.2 U); type: organism-based; conditions: in vivo, 336 h
Rattus norvegicus [18] = assay: Renal toxicity in rat Freund's adjuvant induced arthritis model of chronic inflammation assessed as assessed as total protein level at 10 mg/kg, po dosed after 14 days from day of adjuvant injection until day 21 and measured on day 21 (reference value: 1.78 +/- 0.11 g/dL); type: organism-based; conditions: in vivo, 336 h
Rattus norvegicus [19] = assay: Renal toxicity in rat Freund's adjuvant induced arthritis model of chronic inflammation assessed as assessed as total albumin level at 10 mg/kg, po dosed after 14 days from day of adjuvant injection until day 21 and measured on day 21 (reference value: 1.77 +/- 0.12 g/dL); type: organism-based; conditions: in vivo, 336 h
Rattus norvegicus [20] = assay: Renal toxicity in rat Freund's adjuvant induced arthritis model of chronic inflammation assessed as assessed as creatinine level at 10 mg/kg, po dosed after 14 days from day of adjuvant injection until day 21 and measured on day 21 (reference value: 0.62 +/- 0.049 mg/dL); type: organism-based; conditions: in vivo, 336 h
Rattus norvegicus [21] = assay: Renal toxicity in rat Freund's adjuvant induced arthritis model of chronic inflammation assessed as assessed as blood urea nitrogen level at 10 mg/kg, po dosed after 14 days from day of adjuvant injection until day 21 and measured on day 21 (reference value: 23.48 +/- 1.8 mg/dL); type: organism-based; conditions: in vivo, 336 h
Rattus norvegicus [22] = assay: Hepato-toxicity in rat Freund's adjuvant induced arthritis model of chronic inflammation assessed as assessed as histological changes at 10 mg/kg, po dosed after 14 days from day of adjuvant injection until day 21 and measured on day 21 by hematoxylin and eosin staining based microscopy; type: organism-based; conditions: in vivo, 336 h
Rattus norvegicus [23] = assay: Renal toxicity in rat Freund's adjuvant induced arthritis model of chronic inflammation assessed as assessed as histological changes at 10 mg/kg, po dosed after 14 days from day of adjuvant injection until day 21 and measured on day 21 by hematoxylin and eosin staining based microscopy; type: organism-based; conditions: in vivo, 336 h
Mus musculus [24] = assay: Analgesic activity in Swiss albino mouse assessed as reduction in number of writhing episodes at 10 mg/kg, po measured 30 mins following acetic acid injection; type: functional; conditions: 0.5 h
Mus musculus [25] = assay: Analgesic activity in Swiss albino mouse assessed as reduction in formalin-induced paw licking by measuring time spent on licking during phase-1 at 10 mg/kg, po dosed 1 hr before formalin challenge and measured 30 mins after formalin injection; type: functional
Mus musculus [26] = assay: Analgesic activity in Swiss albino mouse assessed as reduction in formalin-induced paw licking by measuring time spent on licking during phase-2 at 10 mg/kg, po dosed 1 hr before formalin challenge and measured 30 mins after formalin injection; type: functional
[27] = In-vitro antiinflammatory activity assessed as inhibition of denaturation of bovine serum albumin at 10 mg; type: functional
Rattus norvegicus [28] = assay: Anti-inflammatory activity in rat model of acute inflammation assessed as inhibition of carrageenan-induced paw oedema dosed at 10 mg/kg, po dosed 1 hr before carrageenan injection and measured 1 hr after carrageenan injection; type: functional
Rattus norvegicus [29] = assay: Anti-inflammatory activity in rat model of acute inflammation assessed as inhibition of carrageenan-induced paw oedema dosed at 10 mg/kg, po dosed 1 hr before carrageenan injection and measured 2 hrs after carrageenan injection; type: functional

COc1ccc2c(c1)c(CC(=O)O)c(C)n2C(=O)c1ccc(Cl)cc1 [INDOMETHACIN]
inhibition in vivo at 10 mg/kg (Rattus norvegicus [1]): 60.5%
inhibition in vivo at 10 mg/kg (Rattus norvegicus [2]): 60%
inhibition in vivo at 10 mg/kg (Rattus norvegicus [3]): 62.6%
inhibition in vivo at 10 mg/kg (Rattus norvegicus [4]): 57.8%
inhibition in vivo at 10 mg/kg (Rattus norvegicus [5]): 21.1%
inhibition in vivo at 10 mg/kg (Rattus norvegicus [6]): 33.1%
inhibition in vivo at 10 mg/kg (Rattus norvegicus [7]): 39.7%
inhibition in vivo at 10 mg/kg (Rattus norvegicus [8]): 42.4%
inhibition in vivo at 10 mg/kg (Rattus norvegicus [9]): 45.9%
inhibition in vivo at 10 mg/kg (Rattus norvegicus [10]): 51.3%
inhibition in vivo at 10 mg/kg (Rattus norvegicus [11]): 54.2%
inhibition in vivo at 10 mg/kg (Rattus norvegicus [12]): 56.8%
UI (Rattus norvegicus [13]): 52
Activity (Rattus norvegicus [14]): Toxic
Activity (Rattus norvegicus [15]): 121.56 U/ml
Activity (Rattus norvegicus [16]): 52.83 U/ml
Activity (Rattus norvegicus [17]): 26.24 U
Activity (Rattus norvegicus [18]): 2.24 g/dL
Activity (Rattus norvegicus [19]): 2.08 g/dL
Activity (Rattus norvegicus [20]): 1.84 mg/dL
Activity (Rattus norvegicus [21]): 62.74 mg/dL
Activity (Rattus norvegicus [22]): Toxic
Activity (Rattus norvegicus [23]): Toxic
inhibition in vivo at 10 mg/kg (Mus musculus [24]): 77.3%
inhibition in vivo at 10 mg/kg (Mus musculus [25]): 15.6%
inhibition in vivo at 10 mg/kg (Mus musculus [26]): 82.2%
inhibition [27]: 84.9%
inhibition in vivo at 10 mg/kg (Rattus norvegicus [28]): 57.6%
inhibition in vivo at 10 mg/kg (Rattus norvegicus [29]): 59.5%
